Read-outs that look alike come from different tables or passages of the source.
Key:
5-HT3 receptor = molecular target: T1, 5-HT3 receptor (Rattus norvegicus, UniProt P35563); test: 5-HT3 receptor binding test; settings: for Ki: cells without asterisk, read-out: Affinity for receptor (Ki value, nM) 5-HT3
T1 construct: crude synapse membrane sample was prepared from rat cerebral cortex; from tissue; host or cells: rat cerebral cortex, crude synaptic membranes
T1 sequence (P35563 24-483): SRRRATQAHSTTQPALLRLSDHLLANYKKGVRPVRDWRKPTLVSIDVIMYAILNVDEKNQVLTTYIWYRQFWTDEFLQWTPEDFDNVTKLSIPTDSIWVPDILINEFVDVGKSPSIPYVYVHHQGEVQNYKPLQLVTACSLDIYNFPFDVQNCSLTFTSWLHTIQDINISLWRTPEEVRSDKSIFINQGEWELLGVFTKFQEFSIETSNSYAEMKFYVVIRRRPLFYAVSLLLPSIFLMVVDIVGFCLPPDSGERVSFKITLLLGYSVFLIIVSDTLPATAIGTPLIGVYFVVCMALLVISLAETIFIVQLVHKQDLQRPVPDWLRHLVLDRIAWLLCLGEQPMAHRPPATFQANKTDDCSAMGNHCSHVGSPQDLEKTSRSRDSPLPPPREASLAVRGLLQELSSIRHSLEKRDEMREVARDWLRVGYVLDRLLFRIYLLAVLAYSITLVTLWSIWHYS
Method: Experimental Example 2 : 5-HT3 receptor binding test
According to the method of Peroutka et al (European Journal of Pharmacology, vol. 148, pp. 297-299), a specific 5-HT3 receptor binding test was run using, as a tracer ligand, endo-1-methyl-N-(9-methyl-9-azabicyclo[3.3.1]non-3-yl)-1H-indazole-3-carboxamide substituted by tritium (hereinafter to be referred to as [3H]Granisetron). Specifically, crude synapse membrane sample was prepared from rat cerebral cortex, suspended in 50 mM HEPES buffer (pH 7.4) and used for testing. The test compound having several different concentrations and [3H]Granisetron (final concentration 1.0 nM) were added to this suspension and allowed to react at 25°C. Thirty minutes later, the reaction mixture was filtered by suction with cell harvester. The filter was washed with 50 mM Tris buffer (pH 7.4), and the radioactivity on the filter was counted using liquid scintillation counter or β-plate. The non-specific binding was determined in the presence of 1 µM Tropisetron. The concentration of the test compound necessary for 50% inhibition (IC50) and Ki value were determined from graph.

[1] = molecular target: isolated guinea pig ascending colon (Cavia porcellus, UniProt O70528); test: contraction of isolated guinea pig ascending colon; assay type: cell-based; settings: male Hartley guinea pig ascending colon, Tyrode solution 37°C, relative to methacholine (30 µM) contraction; read-out: Contraction of removed colon (EC50)
Method: Experimental Example 3 : contraction of isolated guinea pig ascending colon
About 3 cm long ascending colon segment was taken from male Hartley guinea pig and suspended in 10 ml of a Tyrode solution ventilated with a mixed gas of oxygen (95%) and CO2 (5%) at 37°C with the load of 2 g. The contraction was isotonically measured via isotonic transducer. After an equilibrium period of about 30 min, the test compound was administered non-cumulatively from lower concentrations, and dose-dependent contraction was measured. The test compound was administered at 15 minutes intervals. Then, contraction by the test compound in the presence of a 5-HT4 receptor antagonist, 4-amino-3-chloro-6-methoxybenzoic acid · 2-diethylaminoethyl ester (0.3 µM, hereinafter to be referred to as SDZ 205-557) was determined, and antagonistic effect on the reaction by SDZ 205-557 was confirmed.
The contraction by the test compound was evaluated based on the ratio of reaction relative to mean contraction induced by methacholine (30 µM) administered before and after each determination of dose-dependent contraction. The contraction was probit-converted using the maximum value of dose-response curve as 100, and expressed by EC50 as determined from linear regression and maximum reaction ratio.

5-HT4 receptor = molecular target: T2, 5-HT4 receptor (Cavia porcellus, UniProt O70528); test: 5-HT4 receptor binding test; parameters: species or system guinea pig
T2 construct: crude synapse membrane sample was prepared from guinea pig striatum; from tissue; host or cells: guinea pig striatum, crude synaptic membranes
Method: Experimental Example 1 : 5-HT4 receptor binding test
According to the method of C.J. Grossman et al. (British Journal of Pharmacology, vol. 109, pp. 618-624), a specific 5-HT4 receptor binding test was run using, as a tracer ligand, 1-methyl-1H-indole-3-carboxylic acid · 1-(2-methylsulfonylaminoethyl)-piperidin-4-ylmethyl ester substituted by tritium (hereinafter to be referred to as [3H]GR113808). Specifically, crude synapse membrane sample was prepared from guinea pig striatum, suspended in 50 mM HEPES buffer (pH 7.4) and used for testing. The test compound having several different concentrations and [3H]GR113808 (final concentration 0.1 nM) were added to this suspension and allowed to react at 37°C. Thirty minutes later, the reaction mixture was filtered by suction with cell harvester. The filter was washed with 50 mM HEPES buffer, and the radioactivity on the filter was counted by liquid scintillation counter. The non-specific binding was determined in the presence of 1 µM GR113808. The concentration of the test compound necessary for 50% inhibition (IC50) and Ki value were determined from graph.

[2] = [3H]Granisetron 1.0 nM, crude synapse membrane from rat cerebral cortex, 25°C, cells marked * are IC50, read-out: Affinity for receptor 5-HT3 (∗ shows IC50)
[3] = [3H]GR113808 0.1 nM, crude synapse membrane from guinea pig striatum, 37°C, read-out: Affinity for receptor (Ki value, nM) 5-HT4
[4] = [3H]Granisetron 1.0 nM, crude synapse membrane from rat cerebral cortex, 25°C

isolated guinea pig ascending colon, sequence (O70528 whole entry): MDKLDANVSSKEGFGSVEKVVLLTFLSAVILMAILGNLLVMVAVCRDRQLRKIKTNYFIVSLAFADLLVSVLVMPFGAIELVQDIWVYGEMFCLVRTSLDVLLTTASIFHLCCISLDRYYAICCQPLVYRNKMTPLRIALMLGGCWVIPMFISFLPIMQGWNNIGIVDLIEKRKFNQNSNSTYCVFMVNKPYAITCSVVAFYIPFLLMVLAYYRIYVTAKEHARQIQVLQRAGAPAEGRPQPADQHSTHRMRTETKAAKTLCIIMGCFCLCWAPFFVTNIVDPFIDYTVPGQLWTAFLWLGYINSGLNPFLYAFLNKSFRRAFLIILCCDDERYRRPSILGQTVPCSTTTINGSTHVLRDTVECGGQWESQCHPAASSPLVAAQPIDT
T2 sequence (O70528 whole entry): as above

SMILES	IC50 (5-HT3 receptor; [2]) [nM]	EC50 [1] [nM]	Ki (5-HT4 receptor; [3]) [nM]	Ki (5-HT3 receptor; [4]) [nM]	IC50 (5-HT3 receptor) [nM]	Ki (5-HT4 receptor) [nM]
CCCNC(=O)NCCCCCN1CCC(CNC(=O)c2cc(Cl)c(N)cc2OC)CC1 [Example 48, 4-amino-5-chloro-2-methoxy-N-(1-(5-(3-n-propylureido)pentyl)piperidin-4-ylmethyl)benzamide]	> 1000	4.8	2.1	–	–	–
COc1cc(N)c(Cl)cc1C(=O)NCC1CCN(CCCCCNC(=O)c2ccccc2)CC1 [Example 29, 4-amino-N-(1-(5-benzoylaminopentyl)piperidin-4-ylmethyl)-5-chloro-2-methoxybenzamide]	> 1000	3.7	1.7	–	–	–
COc1cc(N)c(Cl)cc1C(=O)NCC1CCN(CCCC(=O)Nc2ccccc2)C1 (stereo not drawn) [Example 71, 4-amino-5-chloro-2-methoxy-N-(1-(3-phenylcarbamoylpropyl)pyrrolidin-3-ylmethyl)benzamide]	> 1000	–	7.4	–	–	–
COc1cc(N)c(Cl)cc1C(=O)NC[C@H]1CCN(CCNC(=O)CCCc2ccccc2)C1 [Example 100, 4-amino-5-chloro-2-methoxy-N-((3R)-1-(2-(4-phenylbutyrylamino)ethyl)pyrrolidin-3-ylmethyl)benzamide]	> 1000	–	5.3	–	–	–
CCCNC(=O)NCCCCN1CCC(CNC(=O)c2cc(Cl)c(N)cc2OC)CC1 [Example 45, 4-amino-5-chloro-2-methoxy-N-(1-(4-(3-n-propylureido)butyl)piperidin-4-ylmethyl)benzamide]	> 1000	–	5.5	–	–	–
COc1cc(N)c(Cl)cc1C(=O)NCC1CCN(CCCNC(=O)c2cccs2)C1 (stereo not drawn) [Example 19, 4-amino-5-chloro-2-methoxy-N-(1-(3-(2-thiophenecarbonylamino)propyl)pyrrolidin-3-ylmethyl)benzamide]	> 1000	–	4.4	–	–	–
COc1cc(N)c(Cl)cc1C(=O)NCC1CCN(CCCCNC(=O)c2cn(C)c3ccccc23)CC1 [Example 98, N-(4-(4-(4-amino-5-chloro-2-methoxybenzoylaminomethyl)piperidin-1-yl)butyl)-1-methyl-1H-indole-3-carboxamide]	> 1000	4	1.6	–	–	–
COc1cc(N)c(Cl)cc1C(=O)NCC1CCN(CCCNC(=O)c2ccc(C)cc2)C1 (stereo not drawn) [Example 17, 4-amino-5-chloro-2-methoxy-N-(1-(3-(4-methylbenzoylamino)propyl)pyrrolidin-3-ylmethyl)benzamide]	> 1000	–	3.1	–	–	–
COc1cc(N)c(Cl)cc1C(=O)NC[C@H]1CCN(CCCNC(=O)c2ccccc2)C1 [Example 11, 4-amino-N-((3R)-1-(3-benzoylaminopropyl)pyrrolidin-3-ylmethyl)-5-chloro-2-methoxybenzamide]	> 1000	–	6.2	–	–	–
COc1cc(N)c(Cl)cc1C(=O)NC[C@H]1CCN(CCCCNC(=O)c2cccc3ccccc23)C1 [Example 22, 4-amino-5-chloro-2-methoxy-N-((3R)-1-(4-(1-naphthoylamino)butyl)pyrrolidin-3-ylmethyl)benzamide]	> 1000	3.3	1.3	–	–	–
COc1cc(N)c(Cl)cc1C(=O)NCC1CCN(CCCCNC(=O)c2cccc3ccccc23)CC1 [Example 24, 4-amino-5-chloro-2-methoxy-N-(1-(4-(1-naphthoylamino)butyl)piperidin-4-ylmethyl)benzamide]	> 1000	3.9	1.6	–	–	–
COc1cc(N)c(Cl)cc1C(=O)NC[C@H]1CCN(CCCCCNC(=O)c2ccccc2)C1 [Example 27, 4-amino-N-((3R)-1-(5-benzoylaminopentyl)pyrrolidin-3-yl-methyl)-5-chloro-2-methoxybenzamide]	> 1000	5.3	2.2	–	–	–
CCCNC(=O)NCCCCCN1CC[C@H](CNC(=O)c2cc(Cl)c(N)cc2OC)C1 [Example 46, 4-amino-5-chloro-2-methoxy-N-((3R)-1-(5-(3-n-propylureido)pentyl)pyrrolidin-3-ylmethyl)benzamide]	> 1000	6.9	1.5	–	–	–
COc1cc(N)c(Cl)cc1C(=O)NC[C@H]1CCN(CCCCCNC(=O)Nc2ccccc2)C1 [Example 56, 4-amino-5-chloro-2-methoxy-N-((3R)-1-(5-(3-phenylureido)pentyl)pyrrolidin-3-ylmethyl)benzamide]	> 1000	1	0.65	–	–	–
COc1cc(N)c(Cl)cc1C(=O)NCC1CCN(CCCCCNC(=O)c2ccc(C)cc2)CC1 [Example 31, 4-amino-5-chloro-N-(1-(5-(4-methylbenzoylamino)pentyl)piperidin-4-ylmethyl)-2-methoxybenzamide]	> 1000	–	2.3	–	–	–
COc1cc(N)c(Cl)cc1C(=O)NCC1CCN(CCCCCNC(=O)c2cn(C)c3ccccc23)CC1 [Example 90, N-(5-(4-(4-amino-5-chloro-2-methoxybenzoylaminomethyl)piperidin-1-yl)pentyl)-1-methyl-1H-indole-3-carboxamide]	> 1000	0.9	0.43	–	–	–
COc1cc(N)c(Cl)cc1C(=O)NCCCCCN1CC[C@H](CNC(=O)c2cc(Cl)c(N)cc2OC)C1 [Example 78, 4-amino-N-((3R)-1-(5-(4-amino-5-chloro-2-methoxybenzoylamino)pentyl)pyrrolidin-3-ylmethyl)-5-chloro-2-methoxybenzamide]	–	–	1.4	370	–	–
COc1cc(N)c(Cl)cc1C(=O)NCC1CCN(CCCNC(=O)c2ccc(Cl)cc2)C1 (stereo not drawn) [Example 13, 4-amino-5-chloro-N-(1-(3-(4-chlorobenzoylamino)propyl)pyrrolidin-3-ylmethyl)-2-methoxybenzamide]	> 1000	–	3.1	–	–	–
COc1cc(N)c(Cl)cc1C(=O)NC[C@H]1CCN(CCCCNC(=O)c2cn(Cc3ccccc3)c3ccccc23)C1 [Example 95, N-(4-((3R)-3-(4-amino-5-chloro-2-methoxybenzoylaminomethyl)pyrrolidin-1-yl)butyl)-1-benzyl-1N-indole-3-carboxamide]	> 1000	–	1.2	–	–	–
COc1cc(N)c(Cl)cc1C(=O)NCC1CCN(CCCCCNC(=O)Nc2ccc(Cl)cc2)CC1 [Example 59, 4-amino-5-chloro-N-(1-(5-(3-(4-chlorophenyl)ureido)pentyl)-piperidin-4-ylmethyl)-2-methoxybenzamide]	–	–	1.1	190	–	–
COc1cc(N)c(Cl)cc1C(=O)NC[C@H]1CCN(CCCCNC(=O)c2cn(C(C)C)c3ccccc23)C1 [Example 94, N-(4-((3R)-3-(4-amino-5-chloro-2-methoxybenzoylaminomethyl)pyrrolidin-1-yl)butyl)-1-isopropyl-1H-indole-3-carboxamide]	–	–	–	–	> 1000	3.5
